Experimental data published in the supplement of paper PMC4862054.

What was measured:
Test in all cases: normalised viability (% of control), CellTiter-Blue; higher = more viable cells (about 100 = DMSO control)
Conditions in all cases: incubation time: 72 h
CAL-85-1 = system: CAL-85-1
Protocol: (§1)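 DSRT, CellTiter-Blue viability, 72 h incubation. Signal is normalised to DMSO and benzethonium chloride controls. Value is the normalised response at dose 6.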

CAL-51 = system: CAL-51
Protocol: as §1

HDQ-P1 = system: HDQ-P1
Protocol: as §1

MDA-MB-453 = system: MDA-MB-453
Protocol: as §1

CAL-148 = system: CAL-148
Protocol: as §1

DU-4475 = system: DU-4475
Protocol: as §1

Row | SMILES | normalised viability (CAL-85-1) [%] | normalised viability (CAL-51) [%] | normalised viability (HDQ-P1) [%] | normalised viability (MDA-MB-453) [%] | normalised viability (CAL-148) [%] | normalised viability (DU-4475) [%]
1 | NCC(=O)CCC(=O)O [Aminolevulinic acid] (300 nM) | 91.4 | 102 | 90 | 117 | 113 | 91.8
2 | C[C@@H](Oc1cc(-c2cnn(C3CCNCC3)c2)cnc1N)c1c(Cl)ccc(F)c1Cl [Crizotinib] (300 nM) | 92 | 99.7 | 36.5 | 71.1 | 101 | 112
3 | CO[C@H]1/C=C\C=C(/C)C(=O)NC2=CC(=O)C(NCCN(C)C)=C(C[C@@H](C)C[C@H](OC)[C@H](O)[C@@H](C)/C=C(\C)[C@@H]1OC(N)=O)C2=O [Alvespimycin] (30 nM) | 62.8 | 63.5 | 44.2 | 7.17 | 48 | 1.87
4 | CN[C@@H]1C[C@H]2O[C@@](C)([C@@H]1OC)n1c3ccccc3c3c4c(c5c6ccccc6n2c5c31)C(=O)N[C@H]4O [UCN-01] (300 nM) | 41.8 | 31.2 | 26.2 | 38.4 | 87 | 37.6
5 | CCC1=C[C@@H]2CN(C1)Cc1c([nH]c3ccccc13)[C@@](C(=O)OC)(c1cc3c(cc1OC)N(C)[C@H]1[C@@](O)(C(=O)OC)[C@H](OC(C)=O)[C@]4(CC)C=CCN5CC[C@]31[C@@H]54)C2 [Vinorelbine] (300 nM) | 31.4 | 35 | 40.5 | 25.2 | 24.5 | 53.9
6 | Clc1ccc(Nc2nnc(Cc3ccncc3)c3ccccc23)cc1 [Vatalanib] (300 nM) | 94.6 | 98.3 | 78.7 | 105 | 88.5 | 95
7 | N[C@@H](CSC(c1ccccc1)(c1ccccc1)c1ccccc1)C(=O)O [S-trityl-L-cysteine] (1200 nM) | 95.1 | 78.5 | 68.4 | 90.5 | 114 | 97.8
8 | Cn1c(CCCC(=O)O)nc2cc(N(CCCl)CCCl)ccc21 [Bendamustine] (300 nM) | 94.6 | 107 | 61 | 96.8 | 114 | 108
9 | CN(C)/N=N/c1[nH]cnc1C(N)=O [Dacarbazine] (300 nM) | 93.4 | 89.4 | 88.8 | 89 | 84.3 | 92.7
10 | Cc1ccc(C(=O)N(CCCN)[C@@H](c2oc3cc(Cl)ccc3c(=O)c2Cc2ccccc2)C(C)C)cc1 (30 nM) | 33.3 | 26.8 | 74 | 24.8 | 18.3 | 24.3
11 | CCN(CCCOc1ccc2c(Nc3cc(CC(=O)Nc4cccc(F)c4)[nH]n3)ncnc2c1)CCOP(=O)(O)O [Barasertib] (30 nM) | 77.7 | 72 | 46 | 67.6 | 23.7 | 85.7
12 | N.N.[Cl][Pt][Cl] [Cisplatin] (300 nM) | 99.5 | 108 | 78.9 | 107 | 104 | 93.6
13 | COc1cc2nccc(Oc3ccc(NC(=O)C4(C(=O)Nc5ccc(F)cc5)CC4)cc3)c2cc1OC [Cabozantinib] (30 nM) | 85.5 | 102 | 62.5 | 96.5 | 111 | 96.1
